Source: PubChem BioAssay AID248 (DTP/NCI, 2004)
Where “and” joins values, the source holds several entries; their conditions need not be identical. Equal values may be shown once. Toxic doses and inconclusive results are not listed. Cut-off read from the data, not from the text of the source: active = T/C of 150% or more; inactive = T/C below 125%.

Tested on: L1210 leukemia ip in BDF1 mice, survival T/C
Assay: NCI In Vivo Anticancer Drug Screen. Data for tumor model L1210 Leukemia (intraperitoneal) in B6D2F1 (BDF1) mice
Conditions: endpoint: mean survival time, higher = longer survival
Method in brief: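 Mice bearing the transplanted tumor received compound or vehicle. Survival of the treated group was divided by that of the vehicle-treated control group to give the ratio.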

[1] = dose: 100.0 mg/kg/injection, schedule: Q01DX001 (ip), vehicle: Klucel (hydroxypropylcellulose) (HPC)
[2] = dose: 200.0 mg/kg/injection, schedule: Q01DX001 (ip), vehicle: Klucel (hydroxypropylcellulose) (HPC)
[3] = dose: 100.0 mg/kg/injection, schedule: Q01DX001 (ip), vehicle: saline
[4] = dose: 100.0 mg/kg/injection, schedule: Q04DX003 (ip), vehicle: saline with Tween-80
[5] = dose: 200.0 mg/kg/injection, schedule: Q04DX003 (ip), vehicle: saline with Tween-80
[6] = dose: 100.0 mg/kg/injection, schedule: Q01DX001 (ip), vehicle: saline with Tween-80
[7] = dose: 100.0 mg/kg/injection, schedule: Q01DX009 (ip), vehicle: saline
[8] = dose: 200.0 mg/kg/injection, schedule: Q01DX001 (ip), vehicle: saline with Tween-80
[9] = dose: 200.0 mg/kg/injection, schedule: Q01DX009 (ip), vehicle: saline
[10] = dose: 100.0 mg/kg/injection, schedule: Q04DX002 (ip), vehicle: saline with Tween-80
[11] = dose: 200.0 mg/kg/injection, schedule: Q04DX002 (ip), vehicle: saline with Tween-80
[12] = dose: 100.0 mg/kg/injection, schedule: Q04DX003 (ip), vehicle: saline
[13] = dose: 200.0 mg/kg/injection, schedule: Q04DX003 (ip), vehicle: saline
[14] = dose: 50.0 mg/kg/injection, schedule: Q04DX003 (ip), vehicle: saline with Tween-80
[15] = dose: 100.0 mg/kg/injection, schedule: Q01DX009 (ip), vehicle: Klucel (hydroxypropylcellulose) (HPC)
[16] = dose: 200.0 mg/kg/injection, schedule: Q01DX009 (ip), vehicle: Klucel (hydroxypropylcellulose) (HPC)
[17] = dose: 400.0 mg/kg/injection, schedule: Q01DX009 (ip), vehicle: Klucel (hydroxypropylcellulose) (HPC)
[18] = dose: 100.0 mg/kg/injection, schedule: Q04DX003 (ip), vehicle: Klucel (hydroxypropylcellulose) (HPC)
[19] = dose: 200.0 mg/kg/injection, schedule: Q04DX003 (ip), vehicle: Klucel (hydroxypropylcellulose) (HPC)
[20] = dose: 400.0 mg/kg/injection, schedule: Q04DX003 (ip), vehicle: Klucel (hydroxypropylcellulose) (HPC)
[21] = dose: 25.0 mg/kg/injection, schedule: Q04DX003 (ip), vehicle: saline with Tween-80
[22] = dose: 200.0 mg/kg/injection, schedule: Q01DX001 (ip), vehicle: saline
[23] = dose: 400.0 mg/kg/injection, schedule: Q01DX001 (ip), vehicle: saline

Measured: T/C

COc1c(NC(=O)CC(C)=O)ccc2c(C)cc(=O)n(C)c12
inactive: dose: 50.0 mg/kg/injection, schedule: Q01DX001 (ip), vehicle: Klucel (hydroxypropylcellulose) (HPC) 103 % of control | [1] 99 % of control | [2] 100 % of control

c1cnc2ccc3c(c2c1)COCO3
inactive: [3] 93 % of control

O=C(CCCCC(=O)OCC1COCO1)OCC1COCO1 (stereo not drawn)
inactive: dose: 222.0 mg/kg/injection, schedule: Q01DX Z (ip), vehicle: methylcellulose (MC) 98 % of control | dose: 333.0 mg/kg/injection, schedule: Q01DX Z (ip), vehicle: methylcellulose (MC) 98 % of control | dose: 500.0 mg/kg/injection, schedule: Q01DX Z (ip), vehicle: methylcellulose (MC) 98 % of control

CCC(C)OC(=O)Nc1cccc(OC(=O)NC(C)C)c1 (stereo not drawn)
inactive: [4] 96 % of control | [5] 102 % of control | dose: 400.0 mg/kg/injection, schedule: Q04DX003 (ip), vehicle: saline with Tween-80 93 % of control

COC(=O)CCC(=O)c1cccc2ccccc12
inactive: dose: 100.0 mg/kg/injection, schedule: Q04DX003 (ip), vehicle: acetone 91 % of control | dose: 200.0 mg/kg/injection, schedule: Q04DX003 (ip), vehicle: acetone 96 % of control | dose: 400.0 mg/kg/injection, schedule: Q04DX003 (ip), vehicle: acetone 95 % of control

CCOC(=O)/C=C/c1c(Cl)nc2ccccn2c1=O
inactive: [6] 96 % of control | [7] 90 % of control | [8] 94 % of control | [9] 90 % of control | dose: 400.0 mg/kg/injection, schedule: Q01DX001 (ip), vehicle: saline with Tween-80 92 % of control | dose: 400.0 mg/kg/injection, schedule: Q01DX009 (ip), vehicle: saline 95 % of control

CCCCCCCCOC(=O)CCCCl
inactive: [10] 107 % of control | [11] 100 % of control | dose: 400.0 mg/kg/injection, schedule: Q04DX002 (ip), vehicle: saline with Tween-80 102 % of control

CN(C)/N=C\c1cccnc1
inactive: [12] 112 % of control | [13] 86 % of control

Cc1ccc(S(=O)(=O)OC(CO)C(O)C(O)C(CO)OS(=O)(=O)c2ccc(C)cc2)cc1 (stereo not drawn) (tested in a mixture with another compound)
inactive: dose: 100.0 mg/kg/injection, schedule: Q04DX002 (ip), vehicle: Klucel (hydroxypropylcellulose) (HPC) 86 % of control | dose: 200.0 mg/kg/injection, schedule: Q04DX002 (ip), vehicle: Klucel (hydroxypropylcellulose) (HPC) 101 % of control | dose: 400.0 mg/kg/injection, schedule: Q04DX002 (ip), vehicle: Klucel (hydroxypropylcellulose) (HPC) 93 % of control

Cc1ccc2cccc(CC(=O)NN)c2c1
inactive: dose: 50.0 mg/kg/injection, schedule: Q01DX001 (ip), vehicle: saline with Tween-80 92 % of control | dose: 50.0 mg/kg/injection, schedule: Q01DX009 (ip), vehicle: saline with Tween-80 102 % of control | [14] 92 % of control | [6] 92 % of control | dose: 100.0 mg/kg/injection, schedule: Q01DX009 (ip), vehicle: saline with Tween-80 102 % of control | [10] 93 % of control | [4] 90 % of control | [8] 103 % of control | dose: 200.0 mg/kg/injection, schedule: Q01DX009 (ip), vehicle: saline with Tween-80 111 % of control | [11] 98 % of control | [5] 89 % of control

C(=N\Nc1nc2ccccc2o1)/c1ccncc1
inactive: [15] 95 % of control | [16] 104 % of control | [17] 104 % of control

C(=N/OC(c1ccccc1)(c1ccccc1)c1ccccc1)/c1ccccc1
inactive: dose: 50.0 mg/kg/injection, schedule: Q01DX009 (ip), vehicle: saline 98 % of control | dose: 75.0 mg/kg/injection, schedule: Q04DX003 (ip), vehicle: saline 92 % of control | [7] 104 % of control | [18] 101 % of control | [12] 95 % of control | dose: 150.0 mg/kg/injection, schedule: Q04DX003 (ip), vehicle: saline 94 % of control | [9] 98 % of control | [19] 103 % of control | [13] 95 % of control | dose: 300.0 mg/kg/injection, schedule: Q04DX003 (ip), vehicle: saline 89 % of control | [20] 101 % of control | dose: 400.0 mg/kg/injection, schedule: Q04DX003 (ip), vehicle: saline 95 % of control

COc1ccc(C(=O)O)c(CC#N)c1
inactive: [18] 97 % of control | [19] 87 % of control

O=C(O)C1C(c2ccccc2)=C(c2ccccc2)c2ccccc21 (stereo not drawn)
inactive: [21] 92 % of control | [14] 100 % of control | [4] 95 % of control and 103 % of control

CCNC(=O)Oc1ccc(S(=O)(=O)F)cc1Cl
inactive: dose: 25.0 mg/kg/injection, schedule: Q01DX001 (ip), vehicle: carboxymethylcellulose (CMC) 91 % of control | dose: 50.0 mg/kg/injection, schedule: Q01DX001 (ip), vehicle: carboxymethylcellulose (CMC) 107 % of control | dose: 100.0 mg/kg/injection, schedule: Q01DX001 (ip), vehicle: carboxymethylcellulose (CMC) 98 % of control and 100 % of control

O=C(CCBr)Nc1ccc(Cl)cc1C(=O)c1ccccc1
inactive: [15] 102 % of control | [16] 97 % of control | [17] 100 % of control

O=C1c2cccc(NCCO)c2C(=O)c2c(NCCO)cccc21
inactive: [18] 94 % of control | [19] 102 % of control | [20] 94 % of control

C/C(CCO)=N/N=C(N)N
inactive: dose: 15.0 mg/kg/injection, schedule: Q01DX Z (ip), vehicle: methylcellulose (MC) 97 % of control | dose: 30.0 mg/kg/injection, schedule: Q01DX Z (ip), vehicle: methylcellulose (MC) 109 % of control | dose: 30.0 mg/kg/injection, schedule: Q01DX Z (oral), vehicle: methylcellulose (MC) 97 % of control | dose: 60.0 mg/kg/injection, schedule: Q01DX Z (oral), vehicle: methylcellulose (MC) 100 % of control

CCOC(=O)c1cnc(C(Cl)(Cl)Cl)[nH]c1=O
inactive: [1] 94 % of control | [2] 99 % of control | dose: 400.0 mg/kg/injection, schedule: Q01DX001 (ip), vehicle: Klucel (hydroxypropylcellulose) (HPC) 92 % of control

CC(=O)Nc1ccc(NC(=O)Nc2cccc(C(F)(F)F)c2)cc1
inactive: [15] 94 % of control | [16] 87 % of control

CCN(CC)C(=S)S.[Cu+2]
inactive: [3] 105 % of control | [22] 102 % of control | [23] 105 % of control

S=c1nc[nH]c2c1ncn2/N=C/c1ccccc1
inactive: dose: 100.0 mg/kg/injection, schedule: Q01DX001 (ip), vehicle: other 96 % of control | dose: 200.0 mg/kg/injection, schedule: Q01DX001 (ip), vehicle: other 90 % of control | dose: 400.0 mg/kg/injection, schedule: Q01DX001 (ip), vehicle: other 96 % of control

CC1(C)N=C(N)N=C(N)N1c1ccc(CCc2ccccc2)cc1
inactive: dose: 12.5 mg/kg/injection, schedule: Q01DX009 (ip), vehicle: Klucel (hydroxypropylcellulose) (HPC) 97 % of control | dose: 12.5 mg/kg/injection, schedule: Q04DX003 (ip), vehicle: Klucel (hydroxypropylcellulose) (HPC) 98 % of control | dose: 12.5 mg/kg/injection, schedule: Q04DX003 (ip), vehicle: saline with Tween-80 101 % of control | dose: 25.0 mg/kg/injection, schedule: Q01DX009 (ip), vehicle: Klucel (hydroxypropylcellulose) (HPC) 93 % of control | dose: 25.0 mg/kg/injection, schedule: Q04DX003 (ip), vehicle: Klucel (hydroxypropylcellulose) (HPC) 104 % of control | [21] 102 % of control | dose: 50.0 mg/kg/injection, schedule: Q04DX003 (ip), vehicle: Klucel (hydroxypropylcellulose) (HPC) 93 % of control | [14] 104 % of control

Oc1ccc2ccccc2c1/C=N/N1CCN(/N=C/c2c(O)ccc3ccccc23)CC1
inactive: [3] 104 % of control | [22] 96 % of control | [23] 90 % of control
